In the METLIN SMRT retention time set (Domingo-Almenara et al. 2019):

assay: gradient 5% acetonitrile 3 min, to 50% in 2 min, to 85% in 15 min, held 3 min, 100 µL/min; conditions: column: Zorbax Extend-C18 2.1 x 50 mm; eluents: water / acetonitrile, 0.1% formic acid
Outline: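 The mobile phases were water and acetonitrile, each with 0.1% formic acid, pumped at 100 μL/min through a Zorbax Extend-C18 column (2.1 × 50 mm, 1.8 μm). Pure standards were injected as mixtures of ~100 molecules and detected by a quadrupole time-of-flight mass spectrometer in positive and negative ionization mode. Retention time came from computationally picked adduct peaks, each inspected by hand.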

Structure (SMILES) | RP-LC retention time [s]
O=C1CCCc2c1cc(C(=O)NCc1cccnc1)c(=O)n2-c1ccc(C(F)(F)F)cc1 | 644
COc1ccc(-c2cn3ccn(-c4ccc(OC)c(OC)c4)c(=O)c3n2)cc1 | 732
CC(C)c1noc(-c2cccnc2N2CCCN(Cc3cccc(Cl)c3)CC2)n1 | 742
OCCNCc1ccc(-c2ccccc2F)o1 | 596
O=C(C1CCCN(c2nnc(-n3cccc3)s2)C1)N1CCN(Cc2ccccc2)CC1 (configuration not stated) | 661
Cc1ncoc1C(=O)N(C)C1CCc2nn(CC3CC3)c(=O)n2CC1 (configuration not stated) | 594
CCOc1ccccc1NC(=O)C1CCN(S(=O)(=O)c2cn(C)cn2)CC1 | 868
CCN(CC)S(=O)(=O)c1ccc(NC(=O)N2CCCC(C(=O)Nc3cccc(Cl)c3)C2)s1 (configuration not stated) | 996
COc1ccc(NC(=O)c2cn(-c3ccc(C#N)cc3)cn2)cc1OC | 683
Cc1ccc(Cn2cccc2C(=O)C(=O)NC2CCCC2)cc1 | 1100
CCc1nncn1C1CCN(S(=O)(=O)c2ccc(OC)c(Cl)c2)CC1 | 736
CCN1CCCC1CNC(=O)c1nc(-c2oc3c(C)cccc3c2C)no1 (configuration not stated) | 670
CCC(C)NC(=O)c1cc(=O)[nH]c2c(C)cccc12 (configuration not stated) | 661
Cc1nnc(N2CCCC(C(=O)NCc3cccnc3)C2)c2nn(-c3ccccc3)c(C)c12 (configuration not stated) | 579
COc1cccc(CNC(=O)Nc2cccc(-c3ccc(N4CCCCC4)nn3)c2)c1 | 702
CC(C)c1noc(C2CCCN(S(C)(=O)=O)CCC(=O)NCC2)n1 (configuration not stated) | 656
COc1cc2c(cc1OC)-c1cc(=Nc3c(C)cc(C)cc3C)n(C)c(=O)n1CC2 | 765
O=C(NCc1ccc2c(c1)OCO2)C1CCN(C(=O)c2ccccc2F)CC1 | 719
Cc1nnc2cc(N3CCN(C(=O)Nc4ccc(F)c(Cl)c4)CC3)cnn12 | 658
CCCS(=O)(=O)c1nc2ccc(NS(=O)(=O)c3ccc4c(c3)OCCO4)cc2s1 | 888
COC(=O)c1cccc(NC(=O)NC(C(=O)N2CCc3ccccc32)c2ccccc2)c1 (configuration not stated) | 1030
O=C(NCc1ccccc1Cl)C(=O)NCC1CCN(C(=O)Oc2ccccc2)CC1 | 893

Structure (SMILES) | RP-LC retention time [s]
Cc1cnc(-c2ccncc2)n1C1CCCN(S(=O)(=O)c2cn(C)cn2)C1 (configuration not stated) | 557
CCOC(=O)c1ccc(Nc2c(-c3ccccc3)nc3cnccn23)cc1 | 849
CC1(C)C(=O)N(CC(=O)Nc2cccc(Cl)c2)c2ccccc21 | 978
CCc1nnc(-c2cccc(OCC(=O)N3CCCc4ccccc43)c2)o1 | 814
Cc1[nH]c(C(=O)N2CCCC(C(=O)NCc3ccccc3)C2)c(C)c1C(=O)OC(C)C (configuration not stated) | 860
COc1ccc(OC)c(S(=O)(=O)N2[C@H]3CC[C@@H]2c2cnc(C)nc2C3)c1 | 703
Cc1nc(C(=O)Nc2cccc(C(F)(F)F)c2)c(C)o1 | 988
Cc1ccc(-c2cc3c4nnc(SCC(=O)Nc5ccc(F)cc5)n4ccn3n2)cc1C | 931
COc1ccc(-c2c(C(=O)NCCN3CCOCC3)nc3ccccn23)cc1 | 601
O=c1ccc(S(=O)(=O)N2CCCC2)cn1Cc1ccccc1 | 602
Cc1ccc(-c2cc3c(=O)n(Cc4noc(CN5CCSCC5)n4)ccn3n2)c(C)c1 | 962
O=C(NC1CCCCC1)c1ccc2ccnc(N3CCN(c4ccc(Cl)cc4)CC3)c2c1 | 986
COCCN1C(=O)CCc2cc(NC(=O)COc3cccc(C)c3)ccc21 | 799
CCOC(=O)C1=C(C)N(CC(=O)NC(C)CC)c2ncnn2C1c1ccc(C)cc1 (configuration not stated) | 910
O=S1(=O)C[C@H](N2CCN(c3ccccn3)CC2)[C@@H](S(=O)(=O)c2ccccc2)C1 | 598
Cc1ccccc1NC(=O)Cn1ncc2c(c1=O)N(CC1CC1)C(=O)CS2 | 797
CN(C)c1ccc(NC(=O)Cn2c(=O)cc(-c3nc(C4CC4)no3)c3ccccc32)cc1 | 697
CSc1cccc(NC(=O)N2CCN(Cc3nc4cccnc4n3-c3ccc(F)cc3)CC2)c1 | 711
CCCN(C)c1nccn2c(=O)n(CC(=O)Nc3cccc(Cl)c3)nc12 | 724
Cc1ccc(Cl)cc1NC(=O)N1CCC(CC(=O)N2CCCCC2)CC1 | 801
COc1c(C(=O)NCc2ccc(C)o2)sc2cc(Cl)ccc12 | 1120
CCn1c(=O)sc2cc(S(=O)(=O)N3CCC(C(=O)Nc4ccc(C(C)C)cc4)CC3)ccc21 | 985

Structure (SMILES) | RP-LC retention time [s]
Cc1ccc(N2CC(C(=O)N3CCCC3c3nc(-c4cccc(C)c4)no3)CC2=O)cc1 (configuration not stated) | 984
Cc1ccc(C)c(NC(=O)C(=O)NCC(c2ccc3c(c2)CCCN3C)N2CCCC2)c1 (configuration not stated) | 746
CNc1nc(Nc2cccc(OC)c2)nc2ccccc12 | 650
COCCNC(=O)Cn1cccc1-c1nc(-c2ccc(Cl)cc2)cs1 | 988
COc1ccc(CNC(=O)Nc2ccccc2NC(=O)c2cccc(Cl)c2)cc1OC | 808
CC(C)Oc1cccc(NC(=O)C2CCN(S(C)(=O)=O)c3cc(Cl)ccc3O2)c1 (configuration not stated) | 998
CSc1ccc(-c2nc3ccc(C)cn3c2Nc2ccccc2C)cc1 | 795
Cc1cc(Nc2nc(C(=O)NCCN3CCOCC3)cc3occc23)ccc1Br | 621
O=S(=O)(Cc1ccccc1Cl)N(CCc1ccccc1)Cc1ccccn1 | 950
COc1ccc(CNC(=O)c2sc(-c3cn(C(C)C)c4ncccc34)nc2C)cc1 | 1030
COc1ccc(C(=O)N2CCn3c(C)nnc3C2)c(OC)c1 | 557
COc1ccc(N2CCN(c3cc(SCC(=O)Nc4cc(F)ccc4C)ncn3)CC2)cc1 | 1040
O=C(NCCN1CCCC1)C1CCN(c2nc3cccnc3s2)CC1 | 561
Cc1cccc(-c2noc(Cn3c(=O)n(-c4ccccc4F)c(=O)c4sccc43)n2)c1 | 1030
CC(C)S(=O)(=O)c1ccc(C(=O)Nc2onc3c2CCCC3)cc1 | 732
COc1ccc(C(=O)Nc2nccnc2C(=O)NCCN2CCCCC2)cc1 | 590
Cc1ccc(NC(=O)N2CCCC2c2nc(-c3cccc(C)c3)no2)cc1 (configuration not stated) | 1060
COc1ccc(C2(C(=O)NCCC3CCN(C(=O)Nc4ccccc4F)CC3)CC2)cc1 | 837
O=C(Cn1cc(-c2nc(-c3ccc(Cl)cc3)no2)ccc1=O)NC1CCCCC1 | 1030
O=C(Nc1ccc(Nc2ccncc2)cc1)c1ccc([N+](=O)[O-])cc1 | 1250
O=C1NC2(CCN(C(=O)c3ccc(F)cc3)CC2)Nc2cc(Cl)ccc21 | 742
O=C(CCC(=O)N1CCNc2ccccc2C1)N1CCOCC1 | 585

Structure (SMILES) | RP-LC retention time [s]
O=C(NCCc1ccccc1)N1CCc2nc(-c3ccccc3)ncc2C1 | 860
CCn1cc(-c2nc(C)c(C(=O)NCc3ccc(F)cc3F)s2)c2cccnc21 | 969
Cc1cc(=O)n(CC(=O)Nc2cc(F)ccc2F)c(N2CCOCC2)n1 | 698
CCNC(=O)c1c2c(nc3ccc(F)cc13)CCC2 | 613
Cc1ccc(-n2c(N3CCCC(C(=O)NCc4ccccc4Cl)C3)nc3ccsc3c2=O)cc1 (configuration not stated) | 946
COc1cc(/C=C(\OC(C)=O)c2ccc3c(c2)OCO3)cc(OC)c1OC | 924
Cc1oc(-c2cccc(Cl)c2)nc1Cn1nnc(-c2nc(-c3cccnc3)no2)c1C | 1080
Cc1cc(N2CCN(C(=O)CCCc3c[nH]c4ccccc34)CC2)nc2ccccc12 | 696
COc1ccc(N2C(=O)C3N=NN(Cc4nc(-c5cccc(C)c5)no4)C3C2=O)cc1OC (configuration not stated) | 911
COc1cccc(CN2CCC3(CC2)C(OC)C(=O)N3c2cccc(F)c2)n1 (configuration not stated) | 703
COc1ccccc1N1CCN(c2cc(SCC(=O)Nc3ccc(C)cc3C)ncn2)CC1 | 1040
Cc1nnc2n1CCN(C(=O)c1nn(C)c3ccccc13)C2 | 605
O=C(NCCCN1CCc2ccccc2C1)c1ccnc(-c2cccs2)c1 | 646
CCOc1cccc(-c2noc(Cn3c(=O)n(Cc4ccc(F)cc4)c(=O)c4sccc43)n2)c1 | 1210
CCc1nc(-c2ccc(S(=O)(=O)N3CCC(C(=O)Nc4ccc5c(c4)OCCO5)CC3)cc2)no1 | 929
CCc1ccc(Nc2c(C(=O)N3CCCC(C)C3)cnc3nc(C)ccc23)cc1 (configuration not stated) | 702
Cn1nc(-c2nnc(-c3ccc(F)cc3)o2)c2c1CCN(S(=O)(=O)c1cccc3cccnc13)C2 | 882
CCOc1cccc(CN2CCc3nc(N4CCN(c5ccccc5)CC4)ncc3C2)c1 | 785
Cn1nc2n(c1=O)CCN(C(=O)c1cc(CN3CCOCC3)on1)CC2 | 534
CC1Oc2ccc(S(=O)(=O)N3CCC(C(=O)NCc4ccco4)CC3)cc2NC1=O (configuration not stated) | 722
CCc1cc(=O)oc2cc(C)cc(OC(C)C(=O)N3CCC4(O)CCCCC4C3)c12 (configuration not stated) | 817
